Test results as given in the NIST ThermoML archive (doi:10.1016/j.tca.2011.02.008).
Numbers after ± are expanded uncertainties.

Details: 298.15 K; 101.33 kPa; Crystal; X-ray diffraction

| mass density [kg/m3] | Structure (SMILES) |
| --- | --- |
| 1723 ± 2 | O.O.O.O.O.O.O.O=C([O-])c1cccc(C(=O)[O-])n1.O=C([O-])c1cccc(C(=O)[O-])n1.[K+].[K+].[Ni+2] [dipotassium nickel 2,6-pyridinedicarboxylate heptahydrate] |
| 1740 ± 2 | O.O.O.O.O.O.O.O=C([O-])c1cccc(C(=O)[O-])n1.O=C([O-])c1cccc(C(=O)[O-])n1.[Cu+2].[K+].[K+] [dipotassium copper 2,6-pyridinedicarboxylate heptahydrate] |
